Data on 19 compounds can be found in PubChem BioAssay (NCI).

Several values for one entry are separate records, joined by “and”; a condition that tells them apart may be missing. Equal entries are not always repeated.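 Values below derive from 48-hour exposures of cells grown in 96-well plates, with endpoints linearly interpolated between the two concentrations bracketing the appropriate inhibition level. GI50 is the concentration that inhibits growth by half. Definition used: TGI = concentration required for complete inhibition of growth.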

One test relates to UACC-62 melanoma. The experiment in a line: NCI-60 cell line screen, 48 h.
With `CC(C)CNC(=O)O`, the TGI was above 100 µM.

Regarding `CCC(C)(C)c1ccc(OCCCCCCN2CCNCC2)cc1`, the GI50 is 1.76 µM and the TGI was 3.52 µM.

In the case of `O=C(Nc1ccc(-n2cc(-c3ccncc3)c(-c3ccc(Cl)c(O)c3)n2)cc1)Nc1ccc(Cl)c(C(F)(F)F)c1`, the GI50 was 1.7 µM and the TGI worked out at 3.44 µM.

On to `Cc1cc(S(=O)(=O)N/N=C(\Sc2cc(Cl)c(C)cc2S(N)(=O)=O)c2ccc(Cl)cc2)c(Cl)cc1Cl`, for which the GI50 is above 100 µM and the TGI was above 100 µM.

On to `COc1ccc(C(=O)COc2cccc(/C=C3\Oc4ccc5ccccc5c4C3=O)c2)cc1`, for which the GI50 is 10.7 µM and the TGI was 22.5 µM.

The compound `N#CC(=NCCO)C1=C(O)c2ccccc2C1=O` returned a TGI above 100 µM.

As to `CC(=O)/C=C/c1ccc(C#Cc2ccccc2)s1`, the GI50 was 17.5 µM and the TGI turned out to be 31.5 µM.

The compound `CC(C)OC(=O)NNc1cc(Cl)ccc1Cl` yielded a TGI above 100 µM.

In the case of `Cc1cc(C2CC(O)C(CO)O2)cc2c(=O)[nH]c(N)nc12` (stereo not drawn), the GI50 was above 100 µM and the TGI is above 100 µM.

Compound `COc1cc2c(cc1O)C1Cc3ccc(OC)c(O)c3C(C2)N1C` (stereo not drawn) yielded a TGI above 100 µM.

For `COc1cccc(/C(COc2ccc3c(c2)oc(=O)c2cc(OC)ccc23)=N/O)c1`, the GI50 was 4.25 µM and the TGI was above 100 µM.

With `N=C(N)SCc1cccc(-c2nc3ccccc3c(=O)o2)c1`, the TGI was above 100 µM.

Consider `CC(C)N=c1cc2n(-c3ccc(Cl)cc3)c3ccccc3nc-2cc1Nc1ccc(Cl)cc1`, for which the GI50 is 1.96 µM and the TGI was above 50 µM.

As for `Cc1cc2c(cc1Cl)SC(=Nc1ccc(Cl)cc1)N(S(=O)(=O)c1ccccc1)S2(=O)=O`, the GI50 is 11.6 µM and the TGI amounted to 23.8 µM.

For the compound `[Au+].[Au+].[Au+].[c-]1nccn1Cc1ccccc1.[c-]1nccn1Cc1ccccc1.[c-]1nccn1Cc1ccccc1`, the GI50 is 5.23 µM and the TGI worked out at 21.4 µM.

For the compound `Cn1cc(C2=C(c3cn(CCCCCN)c4ccccc34)C(=O)NC2=O)c2ccccc21`, the GI50 was 10.3 µM and the TGI was above 25 µM.

Turning to `CCCCC1(CN2CCOCC2)S/C(=N/c2nc(CC(=O)OCC)cs2)NC1=O` (stereo not drawn), the GI50 is 28.3 µM and the TGI is above 100 µM.

`COc1ccc(OC)c2c(/C=C/c3ccc(N(C)C)cc3)ccnc12`: the TGI is above 10 µM.

Turning to `O=C(CSC(c1ccccc1)c1ccccc1)N/N=C/c1ccc(Cl)cc1Cl`, the GI50 is 21.9 µM and the TGI was above 100 µM.

Another test concerns NCI/ADR-RES ovarian. Briefly: NCI-60 cell line screen, 48 h.
`CC(C)CNC(=O)O` came in with a TGI above 100 µM.

Turning to `CCC(C)(C)c1ccc(OCCCCCCN2CCNCC2)cc1`, the GI50 is 3.11 µM and the TGI was 8.95 µM.

On to `O=C(Nc1ccc(-n2cc(-c3ccncc3)c(-c3ccc(Cl)c(O)c3)n2)cc1)Nc1ccc(Cl)c(C(F)(F)F)c1`, for which the GI50 is 1.88 µM and the TGI was found to be 4.83 µM.

Regarding `Cc1cc(S(=O)(=O)N/N=C(\Sc2cc(Cl)c(C)cc2S(N)(=O)=O)c2ccc(Cl)cc2)c(Cl)cc1Cl`, the GI50 was above 100 µM and the TGI is above 100 µM.

With `COc1ccc(C(=O)COc2cccc(/C=C3\Oc4ccc5ccccc5c4C3=O)c2)cc1`, the GI50 was 16.7 µM and the TGI is 33.2 µM.

Turning to `N#CC(=NCCO)C1=C(O)c2ccccc2C1=O`, the TGI was above 100 µM.

In the case of `CC(=O)/C=C/c1ccc(C#Cc2ccccc2)s1`, the GI50 is 15.8 µM and the TGI was determined as 33.9 µM.

With `CC(C)OC(=O)NNc1cc(Cl)ccc1Cl`, the TGI is above 100 µM.

Take `Cc1cc(C2CC(O)C(CO)O2)cc2c(=O)[nH]c(N)nc12` (stereo not drawn): the GI50 is above 100 µM and the TGI is above 100 µM.

`COc1cc2c(cc1O)C1Cc3ccc(OC)c(O)c3C(C2)N1C` (stereo not drawn) displayed a TGI above 100 µM.

In the case of `COc1cccc(/C(COc2ccc3c(c2)oc(=O)c2cc(OC)ccc23)=N/O)c1`, the GI50 was 3.63 µM and the TGI is above 100 µM.

In turn, `N=C(N)SCc1cccc(-c2nc3ccccc3c(=O)o2)c1` returned a TGI above 100 µM.

`CC(C)N=c1cc2n(-c3ccc(Cl)cc3)c3ccccc3nc-2cc1Nc1ccc(Cl)cc1`: the GI50 is 2.3 µM and the TGI is above 100 µM.

For `Cc1cc2c(cc1Cl)SC(=Nc1ccc(Cl)cc1)N(S(=O)(=O)c1ccccc1)S2(=O)=O`, the GI50 is 5.25 µM and the TGI came to 19.3 µM.

Regarding `[Au+].[Au+].[Au+].[c-]1nccn1Cc1ccccc1.[c-]1nccn1Cc1ccccc1.[c-]1nccn1Cc1ccccc1`, the GI50 is 58 µM and the TGI is above 100 µM.

In the case of `Cn1cc(C2=C(c3cn(CCCCCN)c4ccccc34)C(=O)NC2=O)c2ccccc21`, the GI50 is 12.8 µM and the TGI is above 25 µM.

Turning to `CCCCC1(CN2CCOCC2)S/C(=N/c2nc(CC(=O)OCC)cs2)NC1=O` (stereo not drawn), the GI50 is 40.1 µM and the TGI is above 100 µM.

Compound `COc1ccc(OC)c2c(/C=C/c3ccc(N(C)C)cc3)ccnc12` had a TGI above 10 µM.

As to `O=C(CSC(c1ccccc1)c1ccccc1)N/N=C/c1ccc(Cl)cc1Cl`, the GI50 was 35.3 µM and the TGI is above 100 µM.

A further test concerns HT29 colon. Briefly: NCI-60 cell line screen, 48 h.
`CC(C)CNC(=O)O` returned a TGI above 100 µM.

In the case of `CCC(C)(C)c1ccc(OCCCCCCN2CCNCC2)cc1`, the GI50 was 1.86 µM and the TGI was 4.72 µM.

As to `COc1ccc(C(=O)COc2cccc(/C=C3\Oc4ccc5ccccc5c4C3=O)c2)cc1`, the GI50 was 6.92 µM and the TGI came to 44.6 µM.

`N#CC(=NCCO)C1=C(O)c2ccccc2C1=O` had a TGI above 100 µM.

As for `CC(=O)/C=C/c1ccc(C#Cc2ccccc2)s1`, the GI50 was 12 µM and the TGI stood at 25.2 µM.

`CC(C)OC(=O)NNc1cc(Cl)ccc1Cl` returned a TGI above 100 µM.

For the compound `Cc1cc(C2CC(O)C(CO)O2)cc2c(=O)[nH]c(N)nc12` (stereo not drawn), the GI50 is above 100 µM and the TGI was above 100 µM.

For the compound `COc1cc2c(cc1O)C1Cc3ccc(OC)c(O)c3C(C2)N1C` (stereo not drawn), the TGI is above 100 µM.

For the compound `COc1cccc(/C(COc2ccc3c(c2)oc(=O)c2cc(OC)ccc23)=N/O)c1`, the GI50 is 3.38 µM and the TGI was above 100 µM.

`N=C(N)SCc1cccc(-c2nc3ccccc3c(=O)o2)c1` had a TGI above 100 µM.

Turning to `CC(C)N=c1cc2n(-c3ccc(Cl)cc3)c3ccccc3nc-2cc1Nc1ccc(Cl)cc1`, the GI50 is 0.537 µM and 0.827 µM; the TGI is > 50 µM and 6.27 µM.

As to `[Au+].[Au+].[Au+].[c-]1nccn1Cc1ccccc1.[c-]1nccn1Cc1ccccc1.[c-]1nccn1Cc1ccccc1`, the GI50 was 16.9 µM and the TGI is above 77.4 µM.

Turning to `Cn1cc(C2=C(c3cn(CCCCCN)c4ccccc34)C(=O)NC2=O)c2ccccc21`, the GI50 is 7.39 µM and the TGI was above 22.8 µM.

Regarding `CCCCC1(CN2CCOCC2)S/C(=N/c2nc(CC(=O)OCC)cs2)NC1=O` (stereo not drawn), the GI50 was 40 µM and the TGI is above 100 µM.

Consider `COc1ccc(OC)c2c(/C=C/c3ccc(N(C)C)cc3)ccnc12`, for which the TGI is above 10 µM.

The next test deals with CCRF-CEM leukemia. The experiment in a line: NCI-60 cell line screen, 48 h.
With `CC(C)CNC(=O)O`, the TGI was above 100 µM.

`CCC(C)(C)c1ccc(OCCCCCCN2CCNCC2)cc1`: the GI50 was 1.43 µM and the TGI was determined as 4.64 µM.

Take `O=C(Nc1ccc(-n2cc(-c3ccncc3)c(-c3ccc(Cl)c(O)c3)n2)cc1)Nc1ccc(Cl)c(C(F)(F)F)c1`: the GI50 is 1.53 µM and the TGI is 8.79 µM.

As to `Cc1cc(S(=O)(=O)N/N=C(\Sc2cc(Cl)c(C)cc2S(N)(=O)=O)c2ccc(Cl)cc2)c(Cl)cc1Cl`, the GI50 was 36.8 µM and the TGI is above 100 µM.

As for `COc1ccc(C(=O)COc2cccc(/C=C3\Oc4ccc5ccccc5c4C3=O)c2)cc1`, the GI50 is 0.327 µM and the TGI is 1.44 µM.

With `CC(=O)/C=C/c1ccc(C#Cc2ccccc2)s1`, the GI50 is 22.2 µM and the TGI came out at 47.6 µM.

For `CC(C)OC(=O)NNc1cc(Cl)ccc1Cl`, the TGI is above 100 µM.

Turning to `Cc1cc(C2CC(O)C(CO)O2)cc2c(=O)[nH]c(N)nc12` (stereo not drawn), the GI50 is above 100 µM and the TGI was above 100 µM.

Consider `COc1cc2c(cc1O)C1Cc3ccc(OC)c(O)c3C(C2)N1C` (stereo not drawn), for which the TGI was above 100 µM.

On to `COc1cccc(/C(COc2ccc3c(c2)oc(=O)c2cc(OC)ccc23)=N/O)c1`, for which the GI50 is 11.4 µM and the TGI was above 100 µM.

Consider `CC(C)N=c1cc2n(-c3ccc(Cl)cc3)c3ccccc3nc-2cc1Nc1ccc(Cl)cc1`, for which the GI50 is 0.75 µM and 2.49 µM; the TGI is above 100 µM.

Take `Cc1cc2c(cc1Cl)SC(=Nc1ccc(Cl)cc1)N(S(=O)(=O)c1ccccc1)S2(=O)=O`: the GI50 is 4.92 µM and the TGI worked out at 27.4 µM.

In the case of `[Au+].[Au+].[Au+].[c-]1nccn1Cc1ccccc1.[c-]1nccn1Cc1ccccc1.[c-]1nccn1Cc1ccccc1`, the GI50 was 3.71 µM and the TGI is above 25.5 µM.

`Cn1cc(C2=C(c3cn(CCCCCN)c4ccccc34)C(=O)NC2=O)c2ccccc21`: the GI50 is 5.58 µM and the TGI was above 20.6 µM.

In turn, `COc1ccc(OC)c2c(/C=C/c3ccc(N(C)C)cc3)ccnc12` gave a TGI of 9.28 µM.

With `O=C(CSC(c1ccccc1)c1ccccc1)N/N=C/c1ccc(Cl)cc1Cl`, the GI50 is 31.5 µM and the TGI was above 100 µM.

The test system of a further test is HCC-2998 colon. The experiment in a line: NCI-60 cell line screen, 48 h.
On to `CCC(C)(C)c1ccc(OCCCCCCN2CCNCC2)cc1`, for which the GI50 was 2 µM and the TGI was found to be 3.76 µM.

Consider `O=C(Nc1ccc(-n2cc(-c3ccncc3)c(-c3ccc(Cl)c(O)c3)n2)cc1)Nc1ccc(Cl)c(C(F)(F)F)c1`, for which the GI50 was 1.78 µM and the TGI amounted to 3.25 µM.

In the case of `COc1ccc(C(=O)COc2cccc(/C=C3\Oc4ccc5ccccc5c4C3=O)c2)cc1`, the GI50 is 15.3 µM and the TGI was 28.8 µM.

With `CC(=O)/C=C/c1ccc(C#Cc2ccccc2)s1`, the GI50 is 14.7 µM and the TGI amounted to 27.8 µM.

As for `CC(C)OC(=O)NNc1cc(Cl)ccc1Cl`, the TGI is above 100 µM.

As for `Cc1cc(C2CC(O)C(CO)O2)cc2c(=O)[nH]c(N)nc12` (stereo not drawn), the GI50 is above 100 µM and the TGI was above 100 µM.

In turn, `COc1cc2c(cc1O)C1Cc3ccc(OC)c(O)c3C(C2)N1C` (stereo not drawn) came in with a TGI above 100 µM.

Regarding `COc1cccc(/C(COc2ccc3c(c2)oc(=O)c2cc(OC)ccc23)=N/O)c1`, the GI50 was 7.78 µM and the TGI is above 100 µM.

Take `N=C(N)SCc1cccc(-c2nc3ccccc3c(=O)o2)c1`: the TGI was above 100 µM.

With `[Au+].[Au+].[Au+].[c-]1nccn1Cc1ccccc1.[c-]1nccn1Cc1ccccc1.[c-]1nccn1Cc1ccccc1`, the GI50 was 14.4 µM and the TGI is 37.9 µM.

`Cn1cc(C2=C(c3cn(CCCCCN)c4ccccc34)C(=O)NC2=O)c2ccccc21`: the GI50 is above 25 µM and the TGI is above 25 µM.

Consider `CCCCC1(CN2CCOCC2)S/C(=N/c2nc(CC(=O)OCC)cs2)NC1=O` (stereo not drawn), for which the GI50 was 35.9 µM and the TGI is above 100 µM.

Regarding `COc1ccc(OC)c2c(/C=C/c3ccc(N(C)C)cc3)ccnc12`, the TGI was above 10 µM.
